For data set [1], the system named is H157 (non small cell lung carcinoma). Put plainly: Effect on tumor cell lines, viable cell count by trypan blue exclusion (Latham et al.): H157. The format is cell-based. Conditions: Homo sapiens, NCI-H157, H157 non small cell lung carcinoma cells, viable cell count 96 hours after treatment. On the procedure: (§1) The effect of the compounds of the invention on tumor cells was determined by the assay described by Latham et al., Oncogene 12:827-837 (1996). Tumor cells DU145 (prostate cancer), K562 (chronic myelogenous leukaemia), BT20 (breast carcinoma), H157 (non small cell lung carcinoma), or DLD1 (colon carcinoma) were plated in 6-well dishes at a cell density of 1.0×10^5 cells per 35-mm^2 well. The plated cells were treated 24 hours later with a compound of the invention dissolved in DMSO at multiple concentrations ranging from 100 nM to 10 μM. The total number of viable cells was determined 96 hours later by trypsinizing the wells and counting the number of viable cells, as determined by trypan blue exclusion, using a hemacytometer. Normal HFL cells were treated with the same compounds under the same conditions of concentration and time.

Another data set deals with DLD1 (colon carcinoma). Put plainly: Effect on tumor cell lines, viable cell count by trypan blue exclusion (Latham et al.): DLD1. Format: cell-based. The following applies: Homo sapiens, DLD-1, DLD1 colon carcinoma cells, viable cell count 96 hours after treatment. On the procedure: as §1
Another data set deals with DU145 (prostate cancer). Briefly: Effect on tumor cell lines, viable cell count by trypan blue exclusion (Latham et al.): DU145. The following applies: Homo sapiens, DU-145, 96 h, DU145 prostate cancer cells, viable cell count 96 hours after treatment. Format: cell-based.
The subject of the next data set is BT20 (breast carcinoma). Put plainly: Effect on tumor cell lines, viable cell count by trypan blue exclusion (Latham et al.): BT20. Format: cell-based. Conditions: Homo sapiens, BT-20, BT20 breast carcinoma cells, viable cell count 96 hours after treatment. As to the method: as §1
The test system of data set [2] is K562 (chronic myelogenous leukaemia). Briefly: Effect on tumor cell lines, viable cell count by trypan blue exclusion (Latham et al.): K562. The format is cell-based. The following applies: Homo sapiens, K562, 96 h, K562 chronic myelogenous leukaemia cells, viable cell count 96 hours after treatment.

SMILES strings stand for the structures.

In the case of `NC(=O)/C(=C\c1ccc([N+](=O)[O-])cc1)S(=O)(=O)Cc1ccc(Cl)cc1` [Example 176], the melting point – broadly, the temperature, or range, at which the solid turns liquid – was in the range of 190 to 192 °C. Besides, the IC50 (usually the concentration that inhibits the measured activity by half) in data set [1] is greater than 20 µM. The same molecule had an IC50 in the data set with DLD1 (colon carcinoma) greater than 20 µM. This molecule also came in with an IC50 in the data set on DU145 (prostate cancer) greater than 20 µM. In the data set on BT20 (breast carcinoma), this molecule had an IC50 greater than 20 µM.

`COc1cccc(OC)c1/C=C(\C(N)=O)S(=O)(=O)c1ccccc1` [Example 179] gave a melting point of 168 to 172 °C. The IC50 in data set [1] fell in the range of 10 to 20 µM. Moreover, in the data set on DLD1 (colon carcinoma), the concentration for half-maximal inhibition (IC50) was 10 to 20 µM. In addition, the half-inhibitory concentration (IC50) with DU145 (prostate cancer) is 10 to 20 µM. In the data set with BT20 (breast carcinoma), the IC50 was 10 to 20 µM.

`COc1ccc(CS(=O)(=O)/C(=C/c2ccc(F)cc2)C(N)=O)cc1` [Example 172] registered a melting point of 158 to 161 °C. The half-maximal inhibitory concentration (IC50) in data set [1] is greater than 20 µM. Also, the 50% inhibitory concentration (IC50) in the data set with DLD1 (colon carcinoma) is greater than 20 µM. In the data set on DU145 (prostate cancer), the IC50 is greater than 20 µM. This molecule gave a half-maximal inhibitory concentration (IC50) in the data set on BT20 (breast carcinoma) greater than 20 µM.

`COc1ccc(CS(=O)(=O)/C(=C/c2c(OC)cccc2OC)C(N)=O)cc1` [Example 173] showed a melting point of 166 to 168 °C. The molecule also showed an IC50 in data set [1] greater than 20 µM. Moreover, in the data set on DLD1 (colon carcinoma), the concentration for half-maximal inhibition (IC50) is greater than 20 µM. This molecule also displayed a concentration for half-maximal inhibition (IC50) with DU145 (prostate cancer) greater than 20 µM. The same molecule yielded an IC50 in the data set with BT20 (breast carcinoma) greater than 20 µM.

For `NC(=O)/C(=C\c1ccc(Cl)cc1)S(=O)(=O)Cc1ccc(Cl)cc1Cl` [Example 150], the melting point was in the range of 201 to 205 °C. The molecule also registered a concentration for half-maximal inhibition (IC50) in data set [1] greater than 20 µM. In the data set on DLD1 (colon carcinoma), this molecule showed an IC50 greater than 20 µM. The IC50 with DU145 (prostate cancer) is greater than 20 µM. In the data set with BT20 (breast carcinoma), this molecule showed a 50% inhibitory concentration (IC50) greater than 20 µM.

As to `NC(=O)/C(=C\c1ccc(F)cc1)S(=O)(=O)c1ccccc1` [Example 177], the melting point lay within 151 to 154 °C. The 50% inhibitory concentration (IC50) in data set [1] was in the range of 1 to 10 µM. This molecule also gave a 50% inhibitory concentration (IC50) in the data set with DLD1 (colon carcinoma) of 1 to 10 µM. In the data set on DU145 (prostate cancer), this molecule displayed an IC50 of 1 to 10 µM. In the data set with BT20 (breast carcinoma), this molecule had an IC50 of 1 to 10 µM.

In turn, `COc1cccc(OC)c1/C=C(\C(N)=O)S(=O)(=O)Cc1ccc(Cl)cc1` [Example 175] came in with a melting point of 150 to 154 °C. Further, the concentration for half-maximal inhibition (IC50) in data set [1] is 10 to 20 µM. In addition, in the data set on DLD1 (colon carcinoma), the IC50 is 10 to 20 µM. The molecule further gave an IC50 with DU145 (prostate cancer) of 10 to 20 µM. Further, the IC50 with BT20 (breast carcinoma) fell in the range of 10 to 20 µM.

Molecule `COc1ccc(S(=O)(=O)/C(=C/c2ccc([N+](=O)[O-])cc2)C(N)=O)cc1` [Example 184] registered a melting point of 172 to 174 °C. The IC50 in data set [1] was greater than 20 µM. The half-inhibitory concentration (IC50) with DLD1 (colon carcinoma) was greater than 20 µM. The molecule also displayed a concentration for half-maximal inhibition (IC50) with DU145 (prostate cancer) greater than 20 µM. In addition, in the data set on BT20 (breast carcinoma), the concentration for half-maximal inhibition (IC50) was greater than 20 µM.

As to `COc1cc(OC)c(/C=C(\C(N)=O)S(=O)(=O)Cc2ccc(Cl)cc2)c(OC)c1` [Example 174], the melting point lay in the range of 176 to 178 °C. In addition, the IC50 in data set [1] was greater than 20 µM. Also, the IC50 in the data set with DLD1 (colon carcinoma) was greater than 20 µM. In the data set with DU145 (prostate cancer), this molecule showed an IC50 greater than 20 µM. In the data set with BT20 (breast carcinoma), the IC50 is greater than 20 µM.

As for `COc1ccc(S(=O)(=O)/C(=C/c2c(OC)cccc2OC)C(N)=O)cc1` [Example 183], the melting point is 160 to 162 °C. This molecule also registered an IC50 in data set [1] greater than 20 µM. In the data set on DLD1 (colon carcinoma), this molecule came in with an IC50 greater than 20 µM. The IC50 in the data set with DU145 (prostate cancer) was greater than 20 µM. The molecule further gave a half-maximal inhibitory concentration (IC50) with BT20 (breast carcinoma) greater than 20 µM.

`COc1ccc(CS(=O)(=O)/C(C#N)=C/c2ccc(OC)c(OC)c2)cc1` [Example 148] came in with a melting point of 155 to 160 °C. In the data set with DU145 (prostate cancer), this molecule displayed a half-inhibitory concentration (IC50) of 50 to 100 µM. This molecule had a half-maximal inhibitory concentration (IC50) in data set [2] of 25 to 50 µM.

With `Cc1ccc(NS(=O)(=O)/C(C#N)=C/c2ccccc2Cl)c(C)c1` [Example 256], the melting point lay in the range of 116 to 119 °C. This molecule yielded an IC50 in the data set on DU145 (prostate cancer) of 25 to 50 µM. In addition, the IC50 in data set [2] fell in the range of 1 to 10 µM.

Molecule `N#C/C(=C\c1c[nH]c2ccc(Br)cc12)S(=O)(=O)Nc1ccc(Br)cc1` [Example 222] registered a melting point of 242 to 253 °C. The molecule further registered an IC50 in the data set with DU145 (prostate cancer) of 25 to 50 µM. This molecule also returned an IC50 in data set [2] of 25 to 50 µM.

In turn, `COc1ccc(NS(=O)(=O)/C(C#N)=C/c2cc(C)ccc2C)cc1` [Example 282] came in with a melting point of 125 to 127 °C. Also, in the data set on DU145 (prostate cancer), the IC50 fell in the range of 50 to 100 µM. Besides, the 50% inhibitory concentration (IC50) in data set [2] lay within 50 to 100 µM.

Molecule `COc1ccc(NS(=O)(=O)/C(C#N)=C/c2ccc(OC)c(OC)c2OC)cc1` [Example 285] came in with a melting point of 140 to 142 °C. The IC50 with DU145 (prostate cancer) was greater than 100 µM. This molecule also came in with a half-inhibitory concentration (IC50) in data set [2] of 50 to 100 µM.

Molecule `COc1ccc(/C=C(\C#N)S(=O)(=O)Cc2ccc(Cl)cc2)cc1` [Example 50] had a melting point of 143 to 152 °C. The IC50 with DU145 (prostate cancer) was greater than 100 µM. Moreover, in data set [2], the IC50 is greater than 100 µM.

Consider `COc1cc(OC)c(/C=C(\C#N)S(=O)(=O)Cc2ccc(OC)c(F)c2)c(OC)c1` [Example 39], for which the melting point was 162 to 164 °C. Besides, the 50% inhibitory concentration (IC50) with DU145 (prostate cancer) lay within 1 to 10 µM. In data set [2], this molecule yielded an IC50 of 1 to 10 µM.

`CC(=O)Oc1ccc(/C=C(\C#N)S(=O)(=O)Cc2ccc(F)cc2)cc1` [Example 84]: the melting point was in the range of 116 to 125 °C. In the data set with DU145 (prostate cancer), this molecule yielded a half-inhibitory concentration (IC50) of 1 to 10 µM. Also, the IC50 in data set [2] lay within 1 to 10 µM.

For `N#C/C(=C\c1c[nH]c2ccc(Br)cc12)S(=O)(=O)Cc1ccc(Cl)cc1` [Example 72], the melting point was in the range of 240 to 250 °C. For the same molecule, in the data set with DU145 (prostate cancer), the IC50 is greater than 100 µM. Besides, the concentration for half-maximal inhibition (IC50) in data set [2] was greater than 100 µM.

`N#C/C(=C\c1ccccc1)S(=O)(=O)Cc1ccc(Cl)cc1` [Example 69] showed a melting point of 142 to 157 °C. In the data set with DU145 (prostate cancer), this molecule gave an IC50 greater than 100 µM. Besides, the IC50 in data set [2] was greater than 100 µM.

With `Cc1ccc(/C=C(\C#N)S(=O)(=O)Nc2ccc(F)cc2)s1` [Example 246], the melting point is 133 to 134 °C. This molecule also returned an IC50 in the data set on DU145 (prostate cancer) greater than 100 µM. Besides, the 50% inhibitory concentration (IC50) in data set [2] was greater than 100 µM.

Consider `N#C/C(=C\c1ccc(O)cc1O)S(=O)(=O)Cc1ccc(Cl)cc1` [Example 60], for which the melting point fell in the range of 250 to 255 °C. The IC50 in the data set on DU145 (prostate cancer) is greater than 100 µM. In addition, the concentration for half-maximal inhibition (IC50) in data set [2] was greater than 100 µM.

In the case of `COc1ccc(/C=C(\C#N)S(=O)(=O)Cc2ccccc2)c(OC)c1` [Example 132], the melting point lay in the range of 125 to 130 °C. For the same molecule, the half-inhibitory concentration (IC50) in the data set with DU145 (prostate cancer) was greater than 100 µM. Further, in data set [2], the IC50 is greater than 100 µM.

For `COc1cc(OC)c(/C=C(\C#N)S(=O)(=O)Cc2ccc(OC)c(N)c2)c(OC)c1` [Example 36], the melting point was in the range of 198 to 200 °C. The same molecule displayed an IC50 in the data set with DU145 (prostate cancer) of 25 µM. Further, the IC50 in data set [2] was 5 µM.

In the case of `N#C/C(=C\c1ccoc1)S(=O)(=O)Cc1ccc(Cl)cc1` [Example 122], the melting point was 150 to 154 °C. For the same molecule, the IC50 in the data set on DU145 (prostate cancer) was greater than 100 µM. For the same molecule, the IC50 in data set [2] is greater than 100 µM.

In turn, `N#C/C(=C\c1ccccc1OCc1ccccc1)S(=O)(=O)Nc1ccc(Br)cc1` [Example 213] showed a melting point of 128 to 130 °C. The molecule further registered an IC50 in the data set on DU145 (prostate cancer) of 25 to 50 µM. Also, in data set [2], the half-inhibitory concentration (IC50) is 25 to 50 µM.

(Values after patent US20090191193A1, “Aryl Vinyl Sulfides, Sulfones, Sulfoxides and Sulfonamides, Derivatives Thereof and Therapeutic Uses Thereof” (TEMPLE UNIVERSITY-OF THE COMMONWEALTH SYSTEM OF HIGHER …, priority 2006, published 2009).)
